The conditions of data set [1]: mouse, in vivo.
Excerpt: The data are presented as mean±standard deviation of three independent runs.
T1-weighted images provide only a qualitative reflection of contrast agent distribution, primarily because of the sensitivity profiles of the RF transmit and receiver coils. In contrast, R1 maps provide a better quantitative measure of the contrast agent distribution in the whole body.
The temporal behaviour of the whole-body distribution of contrast agents was quantified by constructing R1 maps at multiple time-points following injection without moving the animal (FIG. 27A). Organ-specific concentration profiles were then quantified directly from R1 measurements in manually segmented regions-of-interest according to Equation 1 (described previously), (FIG. 27B,C).
The R1 of the left ventricular (LV) blood provides a useful indicator of vascular contrast agent enhancement in whole-body images.
The test system of data set [2] is MDA-MB435/LCC6/WT cells. Put plainly: MTT cell viability, wild-type cells. It is filed as cell-based, human.
Description: Cells with no treatment and incubated with blank nanoparticles were used as control for free drug and drug loaded nanoparticle respectively. Cell viability is expressed as the percent of control for each treatment group. Data points represent the mean±standard deviation of the number of trials indicated for each experiment.
The cells were treated with increasing concentrations of doxorubicin or doxorubicin-loaded nanoparticles for 24 hrs and 48 hrs, and the cell viability was determined using MTT assay.

The text below walks through data of patent publication US11155664B2, “Polymeric nanoparticles useful in theranostics” (THE GOVERNING COUNCIL OF THE UNIVERSITY OF TORONTO, priority 2012, dated 2021).

The structures appear in SMILES notation. ≈ marks a conversion by molar mass, not a printed value.

For `CNC(=O)CN(CCN(CCN(CC(=O)[O-])CC(=O)NC)CC(=O)[O-])CC(=O)[O-].[Gd+3]` [Omniscan®, diethylenetriamine pentaacetic acid bismethylamide gadolinium], in data set [1], the “LV blood R1” value was approximately 0.7 s⁻¹ and the “LV blood ΔR1” value is approximately 0.1 s⁻¹.
As a reminder, the IC50 is the concentration that inhibits the measured activity by half. Read a high IC50 as lower potency. Consider `COc1cccc2c1C(=O)c1c(O)c3c(c(O)c1C2=O)C[C@@](O)(C(=O)CO)C[C@@H]3O[C@H]1C[C@H](N)[C@H](O)[C@H](C)O1` [free Dox, doxorubicin], for which the IC50 in data set [2] (24 hrs treatment) amounted to 0.34 µg/mL (≈ 0.626 µM); in data set [2] (48 hrs treatment), 0.07 µg/mL (≈ 0.129 µM).
